This assay relates to enterotoxins. It is filed as binding, Staphylococcus aureus.

On to `CCCCCCCCN` [n-octylamine], for which the “adsorptive affinity for enterotoxins” value is listed as “phenomenal increase in the adsorptive affinity for enterotoxins”.

The record behind these values is US6969616B2 (Kaneka Corporation, priority 2000, dated 2005).
